This is an account of results in patent US12612360B2 (Sanofi, priority 2020, dated 2026).

For the experiment, the target named is T1, ERα (Homo sapiens, UniProt P03372).
T1 construct: host or cells: MCF7
T1 sequence (P03372 1-595): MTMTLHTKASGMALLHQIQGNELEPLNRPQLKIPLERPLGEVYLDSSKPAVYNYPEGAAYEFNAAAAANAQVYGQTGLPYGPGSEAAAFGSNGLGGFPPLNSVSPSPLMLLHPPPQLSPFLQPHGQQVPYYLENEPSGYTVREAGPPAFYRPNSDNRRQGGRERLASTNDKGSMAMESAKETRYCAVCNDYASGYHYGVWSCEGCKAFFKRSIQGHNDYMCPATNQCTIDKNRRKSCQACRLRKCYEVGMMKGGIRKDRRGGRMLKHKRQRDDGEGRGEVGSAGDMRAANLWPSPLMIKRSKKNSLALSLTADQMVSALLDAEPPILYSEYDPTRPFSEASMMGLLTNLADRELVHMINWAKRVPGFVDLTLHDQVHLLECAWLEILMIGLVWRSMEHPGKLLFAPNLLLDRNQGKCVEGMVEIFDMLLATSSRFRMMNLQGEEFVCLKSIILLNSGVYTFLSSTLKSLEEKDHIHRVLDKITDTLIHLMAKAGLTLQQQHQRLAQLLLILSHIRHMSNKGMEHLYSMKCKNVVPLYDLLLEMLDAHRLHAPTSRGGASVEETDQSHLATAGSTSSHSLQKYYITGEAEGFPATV
As to the kind of experiment: Estrogen receptor degradation activity: breast cancer cell ERα in cell western assay (MCF7 cells). It is filed as cell-based. As to conditions: for % Degradation At 0.3 μM: 4 hours, relative to fulvestrant 0.1 μM positive control; for DC50: 4 hours post compound addition, concentration which degrades 50% of the estrogen receptor, read-out: Degradation IC50. In a few lines: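 In-cell western readout: ERα immunofluorescence (Alexa 488) normalised to DNA signal (Syto-64) after formalin fixation. Compounds dosed for 4 h on MCF7 cells in stripped-serum, phenol-red-free medium over nine 1:5 steps, 0.3 to […] final; fulvestrant 0.1 μM control. IC50 in nM for 50% ERα degradation.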

Consider `O=C(O)c1ccc2c(c1)CCCC(c1c(F)ccc3c1CCC3)=C2c1ccc(C=C2CN(CCC(F)F)C2)cc1` [Example 160, 9-(4-((1-(3,3-difluoropropyl)azetidin-3-ylidene)methyl)phenyl)-8-(5-fluoro-2,3-dihydro-1H-inden-4-yl)-6,7-dihydro-5H-benzo[7]annulene-3-carboxylic acid], for which the “% Degradation At 0.3 μM” value turned out to be 93% and the DC50 turned out to be 0.6 nM.
Regarding `O=C(O)c1ccc2c(c1)CCCC(c1ccc3c(c1F)CCC3)=C2c1ccc(C=C2CN(CCC(F)F)C2)cc1` [Example 161, 9-(4-((1-(3,3-difluoropropyl)azetidin-3-ylidene)methyl)phenyl)-8-(4-fluoro-2,3-dihydro-1H-inden-5-yl)-6,7-dihydro-5H-benzo[7]annulene-3-carboxylic acid], the “% Degradation At 0.3 μM” value was 92% and the DC50 worked out at 1.2 nM.
In the case of `O=C(O)c1ccc2c(c1)CCCC(c1cc(F)cc3c1CCC3)=C2c1ccc(C=C2CN(CCC(F)F)C2)cc1` [Example 162, 9-(4-((1-(3,3-difluoropropyl)azetidin-3-ylidene)methyl)phenyl)-8-(6-fluoro-2,3-dihydro-1H-inden-4-yl)-6,7-dihydro-5H-benzo[7]annulene-3-carboxylic acid], the “% Degradation At 0.3 μM” value was determined as 93% and the DC50 amounted to 1.9 nM.
The matching figures for `O=C(O)c1ccc2c(c1)CCCC(c1cccc3c1CCC3)=C2c1ccc(C=C2CN(CCC(F)F)C2)cc1` [Example 163, 9-(4-((1-(3,3-difluoropropyl)azetidin-3-ylidene)methyl)phenyl)-8-(2,3-dihydro-1H-inden-4-yl)-6,7-dihydro-5H-benzo[7]annulene-3-carboxylic acid]: 98% and 0.8 nM.
The matching figures for `O=C(O)c1ccc2c(c1)CCCC(c1cccc3c1CCC3(F)F)=C2c1ccc(C=C2CN(CCC(F)F)C2)cc1` [Example 164, 8-(1,1-difluoro-2,3-dihydro-1H-inden-4-yl)-9-(4-((1-(3,3-difluoropropyl)azetidin-3-ylidene)methyl)phenyl)-6,7-dihydro-5H-benzo[7]annulene-3-carboxylic acid]: 93% and 1.4 nM.
For the compound `O=C(O)c1ccc2c(c1)CCCC(c1ccc(F)c3c1CCC3)=C2c1ccc(C=C2CN(CCC(F)F)C2)cc1` [Example 165, 9-(4-((1-(3,3-difluoropropyl)azetidin-3-ylidene)methyl)phenyl)-8-(7-fluoro-2,3-dihydro-1H-inden-4-yl)-6,7-dihydro-5H-benzo[7]annulene-3-carboxylic acid], the “% Degradation At 0.3 μM” value came to 96% and the DC50 was found to be 1.9 nM.
With `O=C(O)c1ccc2c(c1)CCCC(Cc1ccccc1)=C2c1ccc(C=C2CN(CCCF)C2)cc1` [Example 167, 8-benzyl-9-(4-((1-(3-fluoropropyl)azetidin-3-ylidene)methyl)phenyl)-6,7-dihydro-acid], the “% Degradation At 0.3 μM” value came out at 89% and the DC50 was determined as 1.1 nM.
With `O=C(O)c1ccc2c(c1)CCCC(CCc1ccccc1)=C2c1ccc(C=C2CN(CCCF)C2)cc1` [Example 168, 9-(4-((1-(3-fluoropropyl)azetidin-3-ylidene)methyl)phenyl)-8-phenethyl-6,7-dihydro-5H-benzo[7]annulene-3-carboxylic acid], the “% Degradation At 0.3 μM” value is 95% and the DC50 worked out at 0.3 nM.
With `O=C(O)c1ccc2c(c1)CCCC(CC1CCC1)=C2c1ccc(C=C2CN(CCCF)C2)cc1` [Example 169, 8-(cyclobutylmethyl)-9-(4-((1-(3-fluoropropyl)azetidin-3-ylidene)methyl)phenyl)-6,7-dihydro-5H-benzo[7]annulene-3-carboxylic acid], the “% Degradation At 0.3 μM” value is 90% and the DC50 turned out to be 0.3 nM.
Consider `Oc1ccc2c(c1)CCCC(c1ccc(Cl)cc1Cl)=C2c1ccc(C=C2CN(CCCF)C2)cc1` [Example 170, 8-(2,4-dichlorophenyl)-9-(4-((1-(3-fluoropropyl)azetidin-3-ylidene)methyl)phenyl)-6,7-dihydro-5H-benzo[7]annulen-3-ol], for which the “% Degradation At 0.3 μM” value was determined as 85% and the DC50 was 0.2 nM.
The matching figures for `O=C(O)c1ccc2c(c1)CCCC([C@H]1[C@@H]3CCCC[C@@H]31)=C2c1ccc(C=C2CN(CCCF)C2)cc1` [Example 174, 84(1R,6S,70-bicyclo[4.1.0]heptan-7-yl)-9-(4-((1-(3-fluoropropyl)azetidin-3-ylidene)methyl)phenyl)-6,7-dihydro-5H-benzo[7]annulene-3-carboxylic acid]: 86% and 2.6 nM.
As for `O=C(O)c1ccc2c(c1)CCCC(C13CCCC1C3)=C2c1ccc(C=C2CN(CCCF)C2)cc1` (stereo not shown) [Example 175, 8-(bicyclo[3.1.0]hexan-1-yl)-9-(4-((1-(3-fluoropropyl)azetidin-3-ylidene)methyl)phenyl)-6,7-dihydro-5H-benzo[7]annulene-3-carboxylic acid], the “% Degradation At 0.3 μM” value stood at 87% and the DC50 stood at 0.3 nM.
The matching figures for `O=C(O)c1ccc2c(c1)CCCC(C1CC13CCC3)=C2c1ccc(C=C2CN(CCCF)C2)cc1` (stereo not shown) [Example 176, 9-(4-((1-(3-fluoropropyl)azetidin-3-ylidene)methyl)phenyl)-8-(spiro[2.3]hexan-1-yl)-6,7-dihydro-5H-benzo[7]annulene-3-carboxylic acid]: 93% and 0.3 nM.
The matching figures for `O=C(O)c1ccc2c(c1)CCCC(c1cccc3c1CCCC3)=C2c1ccc(C=C2CN(CCCF)C2)cc1` [Example 177, 9-(4-((1-(3-fluoropropyl)azetidin-3-ylidene)methyl)phenyl)-8-(5,6,7,8-tetrahydronaphthalen-1-yl)-6,7-dihydro-5H-benzo[7]annulene-3-carboxylic acid]: 92% and 1 nM.
The matching figures for `O=C(O)c1ccc2c(c1)CCCC(C1CC3CCC(C3)C1)=C2c1ccc(C=C2CN(CCCF)C2)cc1` (stereo not shown) [Example 178, 8-(bicyclo[3.2.1]octan-3-yl)-9-(4-((1-(3-fluoropropyl)azetidin-3-ylidene)methyl)phenyl)-6,7-dihydro-5H-benzo[7]annulene-3-carboxylic acid]: 95% and 1.4 nM.
`O=C(O)c1ccc2c(c1)CCCC(c1cccc(Cl)c1)=C2c1ccc(C=C2CN(CCCF)C2)cc1` [Example 180, 8-(3-chlorophenyl)-9-(4-((1-(3-fluoropropyl)azetidin-3-ylidene)methyl)phenyl)-6,7-dihydro-5H-benzo[7]annulene-3-carboxylic acid]: the “% Degradation At 0.3 μM” value amounted to 90% and the DC50 was determined as 0.5 nM.
The matching figures for `O=C(O)c1ccc2c(c1)CCCC(c1ccc(Cl)cc1)=C2c1ccc(C=C2CN(CCCF)C2)cc1` [Example 181, 8-(4-chlorophenyl)-9-(4-((1-(3-fluoropropyl)azetidin-3-ylidene)methyl)phenyl)-6,7-dihydro-5H-benzo[7]annulene-3-carboxylic acid]: 91% and 0.5 nM.
The matching figures for `Cl.O=C(O)c1ccc2c(c1)CCCC(c1cccc(C(F)(F)F)c1)=C2c1ccc(C=C2CN(CCCF)C2)cc1` [Example 182, 9-(4-((1-(3-fluoropropyl)azetidin-3-ylidene)methyl)phenyl)-8-(3-(trifluoromethyl)phenyl)-6,7-dihydro-5H-benzo[7]annulene-3-carboxylic acid hydrochloride]: 89% and 0.6 nM.
Regarding `Cl.O=C(O)c1ccc2c(c1)CCCC(c1ccccc1C(F)(F)F)=C2c1ccc(C=C2CN(CCCF)C2)cc1` [Example 183, 9-(4-((1-(3-fluoropropyl)azetidin-3-ylidene)methyl)phenyl)-8-(2-(trifluoromethyl)phenyl)-6,7-dihydro-5H-benzo[7]annulene-3-carboxylic acid hydrochloride], the “% Degradation At 0.3 μM” value is given as 92% and the DC50 turned out to be 0.4 nM.
The matching figures for `Cl.O=C(O)c1ccc2c(c1)CCCC(c1ccc(C(F)(F)F)cc1)=C2c1ccc(C=C2CN(CCCF)C2)cc1` [Example 185, 9-(4-((1-(3-fluoropropyl)azetidin-3-ylidene)methyl)phenyl)-8-(4-(trifluoromethyl)phenyl)-6,7-dihydro-5H-benzo[7]annulene-3-carboxylic acid hydrochloride]: 90% and 0.5 nM.
